Test results taken from PMC9999251, “Pyrazole-based lamellarin O analogues: synthesis, biological evaluation and structure–activity relationships” (RSC Advances, 2023).

Columns and labels:
HCT116 cells = assay: Cell viability (MTT assay), HCT116; assay type: cell-based; settings: Homo sapiens, HCT-116, 96 h treatment, read-out: GI50 ± SD HCT116
Procedure: (§1) SW480 (human colon adenocarcinoma, adherent, epithelial, ATCC number: CCL-228), HT29 (human colon adenocarcinoma, adherent, epithelial, ATCC number: HTB-38), and HCT116 (human colon adenocarcinoma, adherent, epithelial-like, ATCC number: CCL-247) cells were maintained in RPMI-1640 medium (Sigma-Aldrich). Medium was supplemented with heat-inactivated FBS (Biowest), penicillin–streptomycin (Sigma; with 10 000 units penicillin and 10 mg streptomycin per mL in 0.9% NaCl) and L-glutamine (Sigma; 200 mM solution). Cell cultures were cultivated at 37 °C, maintaining a humidified atmosphere consisting of 5% CO2. Gibco™ trypsin–EDTA (0.05%) was used for cell passage.
(§2) To evaluate cell viability, SW480, HT29, and HCT116 cells were harvested from culture flasks by trypsinization and seeded into 96-well plates in 4000 cells per well, 3000 cells per well and 4000 cells per well densities, respectively. After 24 h preincubation period, cells were treated in triplicates with nine different doses of each compound (6a–o and 7a–c) for 96 h. After treatment compound solutions were replaced with MTT solution (MTT reagent in PBS, […]) diluted in a 6 : 1 ratio in non-supplemented RPMI-1640 medium and were additionally incubated for 2 h. After incubation, the medium was removed, and formazan product was dissolved in DMSO. Optical densities were measured at 550 nm with TECAN Infinite® M200 PRO microplate reader using a reference wavelength of 690 nm to correct unspecific absorption. The quantity of viable cells was normalized to untreated controls. The GI50 values were calculated from dose–response curves.

[1] = Determination of HPLC–log P; assay type: physicochemical; settings: reversed-phase HPLC on apHera C18 column; methanol / 0.01 M phosphate buffer pH 7.4; mean ± SD
Procedure: HPLC–log P values were determined using Shimadzu HPLC system equipped with apHera C18 column (10 × 6 mm, 5 μm, Supelco, Bellefonte, PA, USA). Each sample was dissolved in the internal standard mixture, consisting of triphenylene (99.9%, Carl Roth) and toluene (≥98%, Sigma-Aldrich). Analysis was performed at 1.5 mL min^−1 flow rate in the linear gradient where mobile phase consisted of methanol and 0.01 M phosphate buffer (pH 7.4). The HPLC–log P values were calculated from the measured retention times using previously published equation.[57]

HT29 cells = assay: Cell viability (MTT assay), HT29; assay type: cell-based; settings: Homo sapiens, HT-29, 96 h treatment, read-out: GI50 ± SD HT29
Procedure: as §1, §2

SW480 cells = assay: Cell viability (MTT assay), SW480; assay type: cell-based; settings: Homo sapiens, SW480, 96 h, 96 h treatment, read-out: GI50 ± SD SW480
Procedure: as §1, §2

human serum albumin = target: T1, human serum albumin (Homo sapiens, UniProt P02768); assay: Plasma protein binding (PPB), HPLC on albumin-bound stationary phase; assay type: in vitro ADME; settings: pH 7.4, binding to human serum albumin, HPLC method
T1 construct: purchased Chiral Technologies, DAICEL Group, Europe SAS, France CHIRALPAK®HAS (50 × 3 mm, 5 μm)
Procedure: Retention times of the analytes were measured with Shimadzu HPLC system on the CHIRALPAK®HAS stationary phase (50 × 3 mm, 5 μm, Chiral Technologies, DAICEL Group, Europe SAS, France). The mobile phase A consisted of 50 mM aqueous ammonium acetate buffer (pH 7.4) and phase B of 2-propanol according to Valko et al.[65] Analysis was performed at prolonged 1 mL min^−1 flow rate in the linear gradient. Retention capacity factors (k′) were calculated by using DMSO or a substance with 0% HAS binding for systems' dead time (Rt0). The system was calibrated by injecting the reference compounds: acetylsalicylic acid (CAS 69-72-7), betamethasone (CAS 378-44-9), budesonide (CAS 5133-22-3), carbamazepine (CAS 298-46-4), cimetidine (CAS 51481-61-9), ciprofloxacin (CAS 85721-33-1), indomethacin (CAS 53-86-1), isoniazid (CAS 54-85-3), metronidazole (CAS 443-48-1), nicardipine (CAS 55985-32-5), nizatidine (CAS 76963-41-2) and warfarin (CAS 81-81-2) obtained from Sigma-Aldrich, diclofenac (CAS 15307-86-5) from EMD Chemicals Inc., flumazenil (CAS 78755-81-4) from ABX and ketoprofen (CAS 22071-15-4) from LKT Labs. The logarithmic capacity factors of the references' Rt (log(k′)) on the HSA column were plotted against the %PPB values from literature. The slope and the intercept were used to convert the log(k′) of the compounds (6a, c, f, h, m–o) to %PPB using the regression equation.[66]

T1 sequence (P02768 25-609): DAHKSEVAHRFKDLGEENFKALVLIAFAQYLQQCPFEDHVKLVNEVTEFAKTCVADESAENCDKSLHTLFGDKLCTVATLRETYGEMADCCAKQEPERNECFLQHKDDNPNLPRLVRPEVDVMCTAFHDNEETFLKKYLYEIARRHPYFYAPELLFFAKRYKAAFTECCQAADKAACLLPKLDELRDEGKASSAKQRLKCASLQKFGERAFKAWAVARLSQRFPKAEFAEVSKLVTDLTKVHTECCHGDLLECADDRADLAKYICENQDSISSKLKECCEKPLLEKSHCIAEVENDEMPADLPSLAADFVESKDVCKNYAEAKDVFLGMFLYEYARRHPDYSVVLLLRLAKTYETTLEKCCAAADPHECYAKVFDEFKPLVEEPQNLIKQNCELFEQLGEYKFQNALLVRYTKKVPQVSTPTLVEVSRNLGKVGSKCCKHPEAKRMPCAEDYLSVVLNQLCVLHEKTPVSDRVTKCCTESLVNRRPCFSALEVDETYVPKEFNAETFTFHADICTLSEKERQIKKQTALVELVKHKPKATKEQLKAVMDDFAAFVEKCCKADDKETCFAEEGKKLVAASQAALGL

melting point	GI50 (HCT116 cells)	chromatographic logP [1]	GI50 (HT29 cells)	GI50 (SW480 cells)	fraction unbound (human serum albumin)	Compound
112 to 113 °C	5.46 ± 0.393 µM	4.381 ± 0.002	> 20 µM	> 20 µM	0.046	CCOC(=O)c1c(-c2ccccc2)c(-c2ccccc2)nn1CC(=O)c1ccccc1 [Compound 6a, Ethyl 1-(2-oxo-2-phenylethyl)-3,4-diphenyl-1H-pyrazole-5-carboxylate]
144 to 145 °C	> 20 µM	4.468 ± 0.006	> 20 µM	> 20 µM	–	CCOC(=O)c1c(-c2ccccc2)c(-c2ccccc2)nn1CC(=O)c1ccc(OC)cc1 [Compound 6b, Ethyl 1-[2-(4-methoxyphenyl)-2-oxoethyl]-3,4-diphenyl-1H-pyrazole-5-carboxylate]
135 to 136 °C	14.5 ± 3.92 µM	4.711 ± 0.006	> 20 µM	> 20 µM	–	CCOC(=O)c1c(-c2ccccc2)c(-c2ccccc2)nn1CC(=O)c1ccc(Cl)cc1 [Compound 6d, Ethyl 1-[2-(4-chlorophenyl)-2-oxoethyl]-3,4-diphenyl-1H-pyrazole-5-carboxylate]
143 to 144 °C	> 20 µM	3.803 ± 0.012	> 20 µM	> 20 µM	–	CCOC(=O)c1c(-c2ccccc2)c(-c2ccccc2)nn1CC(=O)c1ccc(O)cc1 [Compound 6e, Ethyl 1-[2-(4-hydroxyphenyl)-2-oxoethyl]-3,4-diphenyl-1H-pyrazole-5-carboxylate]
135 to 136 °C	3.75 ± 1.06 µM	4.49 ± 0.006	13.8 ± 0.861 µM	9.24 ± 2.15 µM	–	CCOC(=O)c1c(-c2ccccc2)c(-c2ccc(F)cc2)nn1CC(=O)c1ccccc1 [Compound 6j, Ethyl 3-(4-fluorophenyl)-1-(2-oxo-2-phenylethyl)-4-phenyl-1H-pyrazole-5-carboxylate]

Continued, compound first:

Compound	melting point	GI50 (HCT116 cells)	chromatographic logP [1]	GI50 (HT29 cells)	GI50 (SW480 cells)	fraction unbound (human serum albumin)
O=C(Cn1nc(-c2ccccc2)c(-c2ccccc2)c1C(=O)O)c1ccccc1 [6a′, 1-(2-Oxo-2-phenylethyl)-3,4-diphenyl-1H-pyrazole-5-carboxylic acid]	209 to 210 °C	–	–	–	–	–
CCOC(=O)c1c(-c2ccc(OC)cc2)c(-c2ccc(OC)cc2)nn1CC(=O)c1ccccc1 [Compound 6f, Ethyl 3,4-bis(4-methoxyphenyl)-1-(2-oxo-2-phenylethyl)-1H-pyrazole-5-carboxylate]	62 to 63 °C	2.29 ± 0.218 µM	4.462 ± 0.005	> 20 µM	> 20 µM	0.061
CCOC(=O)c1c(-c2ccc(OC)cc2)c(-c2ccc(OC)cc2)nn1CC(=O)c1ccc(OC)cc1 [Compound 6g, Ethyl 3,4-bis(4-methoxyphenyl)-1-[2-(4-methoxyphenyl)-2-oxoethyl]-1H-pyrazole-5-carboxylate]	67 to 68 °C	> 20 µM	4.531 ± 0.004	> 20 µM	> 20 µM	–
CCOC(=O)c1c(-c2ccc(OC)cc2)c(-c2ccc(OC)cc2)nn1CC(=O)c1ccc(F)cc1 [Compound 6h, Ethyl 1-[2-(4-fluorophenyl)-2-oxoethyl]-3,4-bis(4-methoxy-phenyl)-1H-pyrazole-5-carboxylate]	104 to 105 °C	2.07 ± 1.45 µM	4.531 ± 0.006	4.76 ± 2.33 µM	4.76 ± 2.33 µM	0.062
CCOC(=O)c1c(-c2ccc(OC)cc2)c(-c2ccc(OC)cc2)nn1CC(=O)c1ccc(Cl)cc1 [Compound 6i, Ethyl 1-[2-(4-chlorophenyl)-2-oxoethyl]-3,4-bis(4-methoxy-phenyl)-1H-pyrazole-5-carboxylate]	132 to 133 °C	> 20 µM	4.784 ± 0.005	> 20 µM	> 20 µM	–
CCOC(=O)c1c(-c2ccc(F)cc2)c(-c2ccc(F)cc2)nn1CC(=O)c1ccccc1 [Compound 6k, Ethyl 3,4-bis(4-fluorophenyl)-1-(2-oxo-2-phenylethyl)-1H-pyrazole-5-carboxylate]	103 to 104 °C	3.39 ± 0.62 µM	4.546 ± 0.005	11.1 ± 2.62 µM	7.81 ± 2.02 µM	–
CCOC(=O)c1c(-c2ccc(OC)cc2)c(-c2ccc(F)cc2)nn1CC(=O)c1ccccc1 [Compound 6l, Ethyl 3-(4-fluorophenyl)-4-(4-methoxyphenyl)-1-(2-oxo-2-phenylethyl)-1H-pyrazole-5-carboxylate]	87 to 88 °C	5.05 ± 1.16 µM	4.499 ± 0.006	> 20 µM	8.28 ± 2.34 µM	–
CCOC(=O)c1c(-c2ccc(OC)cc2)c(-c2ccc(F)cc2)nn1CC(=O)c1ccc(F)cc1 [Compound 6n, Ethyl 3-(4-fluorophenyl)-1-[2-(4-fluorophenyl)-2-oxoethyl]-4-(4-methoxyphenyl)-1H-pyrazole-5-carboxylate]	81 to 82 °C	2.1 ± 0.198 µM	4.564 ± 0.004	6.78 ± 0.463 µM	1.64 ± 0.022 µM	0.047
CCOC(=O)c1c(-c2ccc(F)cc2)c(-c2ccc(F)cc2)nn1CC(=O)c1ccc(F)cc1 [Compound 6o, Ethyl 3,4-bis(4-fluorophenyl)-1-[2-(4-fluorophenyl)-2-oxoethyl]-1H-pyrazole-5-carboxylate]	105 to 106 °C	2.36 ± 0.039 µM	4.598 ± 0.004	6.67 ± 2.12 µM	2.09 ± 0.032 µM	0.029
COC(=O)c1c(-c2ccccc2)c(-c2ccccc2)nn1CC(=O)c1ccccc1 [Compound 7a, Methyl 1-(2-oxo-2-phenylethyl)-3,4-diphenyl-1H-pyrazole-5-carboxylate]	138 to 139 °C	> 20 µM	4.279 ± 0.005	> 20 µM	> 20 µM	–
COC(=O)c1c(-c2ccccc2)c(-c2ccccc2)nn1CC(=O)c1ccc(OC)cc1 [Compound 7b, Methyl 1-[2-(4-methoxyphenyl)-2-oxoethyl]-3,4-diphenyl-1H-pyrazole-5-carboxylate]	163 to 164 °C	> 20 µM	4.347 ± 0.007	> 20 µM	> 20 µM	–
COC(=O)c1c(-c2ccccc2)c(-c2ccccc2)nn1CC(=O)c1ccc(F)cc1 [Compound 7c, Methyl 1-[2-(4-fluorophenyl)-2-oxoethyl]-3,4-diphenyl-1H-pyrazole-5-carboxylate]	114 to 115 °C	2.7 ± 0.689 µM	4.327 ± 0.007	9.72 ± 3.71 µM	–	–
